Laboratory results reported in patent US12005265B2, “Compositions and methods to modulate cell activity” (THE ROCKEFELLER UNIVERSITY, priority 2014, dated 2024).

Tests used:
[1] = system: HEK or N38 cells; experiment: Whole cell voltage clamp recordings of cultured HEK and N38 cells; format: cell-based; details: 2APB 200 μM, −60 mV
Procedure: Neurons expressing GFP were visualized using epifluorescence on an upright Zeiss Axioskop 2FS Plus microscope equipped with a Hamamatsu CCD camera. External solution contained (in mM): 140 NaCl, 2.8KCl, 2CaC2, 1 MgCl2, 1HEPES, 10 glucose, pH 7.4.
I-V relationships were obtained by measuring current responses to increasing 5 mV steps in the presence of 200 μM 2APB. Cells were held at −60 mV. Magnetic activation was applied by bringing a permanent magnet within 500 microns of the recorded cell for 5 seconds with a micromanipulator. Recordings were acquired with an Axopatch 200B amplifier, filtered to 2 kHz and digitized at 10 kHz (pClamp software, Molecular Devices). Data were analyzed using IGOR Pro (Wavemetrics) and NeuroMatic. (neuromatic.thinkrandom.com). Series resistance was monitored and not compensated for. If there was more than a 20% change in series resistance the recording was excluded.

[2] = system: N38 cells; experiment: Multiphoton chloride imaging (MQAE) of stably transfected N38 cells; format: cell-based, mouse
Procedure: Stably transfected cells were washed with Krebs-HEPES buffer 3 times then loaded with MQAE (N-(Ethoxycarbonylmethyl)-6-Methoxyquinolinium Bromide, 5 mM, Invitrogen) for 60 min at room temperature. […] Imaging was performed using LSM 510 NLO inverted multiphoton and confocal system (Zeiss) using a 40× objective with two photon excitation at 750 nm. […] Imaging was repeated in the presence of Ruthenium red (100 μM) (2 occasions for each condition). Images were analyzed using Image J software.

[3] = system: αGFP-TRPV1; details: HEK cells transfected with αGFP-TRPV1; 2APB; vs 0.85-fold
Procedure: Transfected cells were washed three times in PBS then loaded with Fluo-4 3 μM (Invitrogen) in the presence of sulfinpyrazone 500 μM (Sigma) for 60 min at room temperature. Cells were washed again in PBS then incubated for 30 min in sulfinpyrazone in PBS. Cells were washed and then imaged in calcium imaging buffer. Imaging was performed using a Deltavision personal DV imaging system (Applied Precision, Issawaq, WA) equipped with a custom-made ceramic lens.

[4] = system: N38 cells; experiment: Effect of RF on pCREB and c-fos in N38 cells; format: cell-based, mouse; details: N38 cells expressing αGFP-TRPV1/GFP-ferritin
Procedure: Effect of RF or magnet on pCREB and cFos: 24 h prior to the study, cells were placed in 1% FBS medium at 32° C. to ensure minimal activation of TRPV1 and calcium dependent pathways. On the day of study, cells were incubated in 500 μl of calcium imaging buffer at room temperature (control) or in a RF field (31 mT) at room temperature. For magnet treatment, cells were treated with a static magnetic field (280 mT) for 5 seconds every 2 minutes for 1 hour at room temperature. After 60 min, the cells were placed on ice, the supernatant removed and cells lysed with RIPA buffer (40 μl, pCREB) or lysis buffer (100 μl Agilent Absolutely RNA microprep kit) and frozen at −80° C. until assay or RNA purification. Each study was repeated on 3 occasions each with 4 replicates. Control studies with N38 cells alone were performed on 2 occasions with 4 replicates.
Protein was isolated by lysis in RIPA buffer and centrifugation at 16000 rpm, 4° C. for 5 min before addition of 4× Laemelli buffer. Samples were denatured for 5 mins at 95° C. and frozen at −20° C. before assay. Samples (15 ul) were run on a 4-15% gel then transferred to PVDF membrane. Membranes were blocked (3% dried milk in TBST buffer) for 1 hour at room temperature then incubated in primary antibody (Phospho-CREB (Ser133) (87G3) Rabbit mAb (1:1000) or beta Actin Rabbit Ab (1:1000), Cell Signaling) in TBST overnight at 4 degrees. […]

[5] = system: N38 cells; experiment: Calcium imaging of stably transfected N38 cells under RF or magnet; format: cell-based, mouse; details: N38 cells expressing αGFP-TRPV1/GFP-ferritin
Procedure: TRPV1 is a non-selective cation channel with relatively high permeability to divalent cations, particularly calcium (Ca2+>Mg2+>Na+K+Cs+)^55. […] Cells were washed again in PBS then incubated for 15-30 min in sulfinpyrazone in PBS. […] Images were acquired every 3 seconds for 3 minutes. […] Imaging was repeated in the presence of Ruthenium red (100 μM) (2 occasions for each condition). Images were analyzed using Image J software.
For studies to examine the effects of increasing RF or magnet field strength, to assess the effects of short RF treatment (10s) on calcium responses and to examine the kinetics of the calcium response, cells were loaded with FluoForte 20 μM (Enzo Life Sciences, Lorrach, Germany) in the presence of Pluronic F-127 (0.02% vol/vol) and sulfinpyrazone 500 μM. […] Imaging was performed as above with images acquired every second for 1 minute. Cells were imaged without treatment (4 occasions), before and during RF treatment at 31, 27 and 23 mT (4 occasions each), before and during application of a neodymium magnet at 280 or 130 mT (magnet 2 mm or 5 mm from the cells respectively, 4 occasions each) and before, during and after 10 second treatment with RF (31 mT) (4 occasions). Images were analyzed using Image J software.

[6] = N38 cells stably transfected with αGFP-TRPV1^Mutant/GFP-ferritin

Row | SMILES | current induced by TRPV1 agonist ([1]; HEK cell expressing αGFP-TRPV1/GFP-ferritin) | current induced by TRPV1 agonist ([1]; HEK cell expressing αGFP-TRPV1^Mutant/GFP-ferritin) | level of intracellular chloride measured by MQAE quenching [2, 6] | change in Fluo-4 fluorescence (intracellular calcium) [3] [fold] | effect on RF-induced increase of pCREB and c-fos [4] | effect on RF-induced rise of intracellular calcium [5] | effect on magnet-induced increase of intracellular calcium [5] | effect on magnet-induced increase of intracellular chloride ([2]; N38 cells expressing αGFP-TRPV1^Mutant/GFP-ferritin) | effect on 2APB-induced increase of intracellular chloride [2, 6]
1 | NCCOB(c1ccccc1)c1ccccc1 [2APB, 2-aminoethoxydiphenyl borate] | inward current | outward current | significantly increased | 2.0 | – | – | – | – | –
2 | N.N.N.N.N.N.N.N.N.N.N.N.N.N.[Cl-].[Cl-].[Cl-].[Cl-].[Cl-].[Cl-].[O-2].[O-2].[Ru+3].[Ru+3].[Ru+4] [ruthenium red] | – | – | – | – | blocked | blocked | blocked | blocked | blocked
